The source of these data is US9415070B2, “Methods and compositions for localized delivery of agents to virally infected cells and tissues” (Massachusetts Institute of Technology, priority 2012, dated 2016).

The subject of one experiment is infected target cells. Briefly: in vitro eradication assay, HIV-specific T cells co-cultured with infected target cells. Format: cell-based. As to conditions: in the presence of the latency reversing drug; FIG. 4. From the text:
The in vitro cell eradication assay presented in this Example was directed to determining if T pharmacytes can induce expression of HIV expression in latently infected cells and kill those cells. HIV-specific T cells and Cytomegalovirus (CMV)-specific T cells were co-cultured with infected target cells (and mock-infected target cells) without the addition of any exogenous cytokines.

Experiment [1] concerns B lymphoblastoid cell line (BLCL). The experiment in a line: lysis of BLCL by recombinant perforin (FSC/SSC flow cytometry). Format: cell-based. The settings on record: FIG. 12A. The protocol:
The next series of experiments were designed to test the effects of different concentrations of recombinant perforin on lysis of a B lymphoblastoid cell line (BLCL). […] The cell populations with FSC/SSC characteristics of viable BLCL have been gated. 1 nM perforin appeared to be sufficient for clear cell lysis. To investigate whether perforin release from T cells is sufficient to trigger release of payload from nanoparticles conjugated to T cells, ICMV nanoparticles encapsulating Alexa-647-labeled OVA were treated with 1 nM perforin for 16 hours, or maintained as a no-treatment control. As a positive control for complete lysis, NPs were treated with 2% Triton X-100. Fluorescence was quantified at 647 nm absorbance and 695 nm emission.
For orientation: In flow cytometry, cells or beads pass a laser one at a time.

On to “IL-15: cytokine used as latency reversing drug”, for which, in the experiment with infected target cells, the “response of HIV-specific T cells to infected target cells” value is reported as “specifically respond to these infected target cells only in the presence of latency reversing drugs”.

B1: perforin: pore-forming protein, 67-kilodalton multidomain protein (protein, UniProt P14222 22-555, looked up)
Perforin-1: PCHTAARSECKRSHKFVPGAWLAGEGVDVTSLRRSGSFPVDTQRFLRPDGTCTLCENALQEGTLQRLPLALTNWRAQGSGCQRHVTRAKVSSTEAVARDAARSIRNDWKVGLDVTPKPTSNVHVSVAGSHSQAANFAAQKTHQDQYSFSTDTVECRFYSFHVVHTPPLHPDFKRALGDLPHHFNASTQPAYLRLISNYGTHFIRAVELGGRISALTALRTCELALEGLTDNEVEDCLTVEAQVNIGIHGSISAEAKACEEKKKKHKMTASFHQTYRERHSEVVGGHHTSINDLLFGIQAGPEQYSAWVNSLPGSPGLVDYTLEPLHVLLDSQDPRREALRRALSQYLTDRARWRDCSRPCPPGRQKSPRDPCQCVCHGSAVTTQDCCPRQRGLAQLEVTFIQAWGLWGDWFTATDAYVKLFFGGQELRTSTVWDNNNPIWSVRLDFGDVLLATGGPLRLQVWDQDSGRDDDLLGTCDQAPKSGSHEVRCNLNHGHLKFRYHARCLPHLGGGTCLDYVPQMLLGEPPGNRSGAVW
Regarding B1, the “perforin concentration sufficient for clear cell lysis” value in experiment [1] came to 1 nM.
